Measured values taken from patent US8609713B2, “Pyrrole derivatives and their methods of use” (AbbVie Inc., priority 2006, dated 2013).

Molecular target: α7 nAChRs (Homo sapiens, UniProt P36544)
Assay: High-throughput calcium flux (FLIPR) assay using IMR-32 cells expressing endogenous α7 nAChRs
Protocol: (i) High-Throughput Calcium Flux Assays Using Cells Expressing Endogenous α7 nAChRs
Any suitable selective α7 agonist can be used.
IMR-32 neuroblastoma cells (ATCC) were grown to confluency in 162 cm^2 tissue culture flasks in minimum essential media supplemented with 10% FBS and 1 mM sodium puruvate, 0.1 mM non-essential amino acids and 1% antibiotic-antimycotic. The cells were then dissociated using cell dissociation buffer and 40 μl of 3.5×10^5 cells/ml cell suspension was plated (˜15,000 cells/well) into black plates with clear bottom and maintained for 48 hours in a tissue culture incubator at 37° C. under an atmosphere of 5% CO2: 95% air. […] Calcium flux was measured using calcium-3 assay kit (Molecular Devices, Sunnyvale, Calif.) or fluo-4. […] Fluorescence measurements were read simultaneously from all the wells by a Fluorometic Imaging Plate Reader (FLIPR) at an excitation wavelength of 480 nm and an emission wavelength of 520 nm. Baseline fluorescence was measured for the first 10 seconds, at which point 5× concentrations of modulator/test compounds were added to the cell plate and incubated for three minutes. The fluorescence intensity was captured every second for the first 1 minute followed by every 5 seconds for an additional 2 minutes. […]

Chain of α7 nAChRs (P36544 23-502): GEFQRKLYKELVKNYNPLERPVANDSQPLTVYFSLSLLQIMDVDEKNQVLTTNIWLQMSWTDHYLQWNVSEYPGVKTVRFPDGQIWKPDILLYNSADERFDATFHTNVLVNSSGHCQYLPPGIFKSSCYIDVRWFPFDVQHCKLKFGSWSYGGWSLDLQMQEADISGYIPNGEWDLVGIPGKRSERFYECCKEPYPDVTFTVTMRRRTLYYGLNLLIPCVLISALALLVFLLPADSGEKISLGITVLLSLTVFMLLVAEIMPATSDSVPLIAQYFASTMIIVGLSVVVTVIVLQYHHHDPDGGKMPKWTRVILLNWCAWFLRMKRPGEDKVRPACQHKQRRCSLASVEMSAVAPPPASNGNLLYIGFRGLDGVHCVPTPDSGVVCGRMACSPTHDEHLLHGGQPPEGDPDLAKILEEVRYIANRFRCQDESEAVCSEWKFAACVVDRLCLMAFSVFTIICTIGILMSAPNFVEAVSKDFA

Row | SMILES | calcium response, agonist alone (absence of allosteric modulator, FIG. 3) | effect of α7 selective antagonist on the agonist plus modulator calcium response
1 | CN1CC2CN(c3ccc(-c4ccccc4)nn3)CC2C1 (centres unmarked) | did not trigger calcium responses | –
2 | CCN1C[C@]2(COC(=O)c3ccccc3N3C(=O)C[C@H](C)C3=O)CC[C@H](OC)[C@@]34[C@@H]5C[C@H]6[C@H](OC)[C@@H]5[C@](O)(C[C@@H]6OC)[C@@](O)([C@@H](OC)[C@H]23)[C@@H]14 [methyllycaconitine] | – | abolished response
